Earlier results, collected in patent publication US20040220281A1, “Treatment of hormone-refractory prostate cancer” (priority 2003, published 2004).
Like-named read-outs stand apart in the source and are kept apart here.

Key:
[1] = target: p-glycoprotein (P-gp) pump (Homo sapiens, UniProt P08183)
[2] = in vitro
[3] = in vivo
[4] = target: CYP 3A4 (Homo sapiens, UniProt P08684)
CYP 3A4, sequence (P08684 whole entry, species assumed): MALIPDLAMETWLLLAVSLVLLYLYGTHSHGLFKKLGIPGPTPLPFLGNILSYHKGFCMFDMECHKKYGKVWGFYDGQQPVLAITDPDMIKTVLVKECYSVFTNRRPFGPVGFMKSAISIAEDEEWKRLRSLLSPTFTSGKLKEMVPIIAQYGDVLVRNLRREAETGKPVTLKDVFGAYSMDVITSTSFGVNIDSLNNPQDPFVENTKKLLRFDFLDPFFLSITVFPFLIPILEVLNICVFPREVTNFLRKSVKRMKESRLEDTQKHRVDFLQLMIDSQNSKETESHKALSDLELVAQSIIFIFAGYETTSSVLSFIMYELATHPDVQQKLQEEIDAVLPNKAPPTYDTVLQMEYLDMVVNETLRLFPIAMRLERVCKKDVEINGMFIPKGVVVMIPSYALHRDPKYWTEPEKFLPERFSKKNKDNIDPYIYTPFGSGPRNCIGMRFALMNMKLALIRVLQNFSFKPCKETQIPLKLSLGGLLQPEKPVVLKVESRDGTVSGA

p-glycoprotein (P-gp) pump, sequence (P08183 whole entry): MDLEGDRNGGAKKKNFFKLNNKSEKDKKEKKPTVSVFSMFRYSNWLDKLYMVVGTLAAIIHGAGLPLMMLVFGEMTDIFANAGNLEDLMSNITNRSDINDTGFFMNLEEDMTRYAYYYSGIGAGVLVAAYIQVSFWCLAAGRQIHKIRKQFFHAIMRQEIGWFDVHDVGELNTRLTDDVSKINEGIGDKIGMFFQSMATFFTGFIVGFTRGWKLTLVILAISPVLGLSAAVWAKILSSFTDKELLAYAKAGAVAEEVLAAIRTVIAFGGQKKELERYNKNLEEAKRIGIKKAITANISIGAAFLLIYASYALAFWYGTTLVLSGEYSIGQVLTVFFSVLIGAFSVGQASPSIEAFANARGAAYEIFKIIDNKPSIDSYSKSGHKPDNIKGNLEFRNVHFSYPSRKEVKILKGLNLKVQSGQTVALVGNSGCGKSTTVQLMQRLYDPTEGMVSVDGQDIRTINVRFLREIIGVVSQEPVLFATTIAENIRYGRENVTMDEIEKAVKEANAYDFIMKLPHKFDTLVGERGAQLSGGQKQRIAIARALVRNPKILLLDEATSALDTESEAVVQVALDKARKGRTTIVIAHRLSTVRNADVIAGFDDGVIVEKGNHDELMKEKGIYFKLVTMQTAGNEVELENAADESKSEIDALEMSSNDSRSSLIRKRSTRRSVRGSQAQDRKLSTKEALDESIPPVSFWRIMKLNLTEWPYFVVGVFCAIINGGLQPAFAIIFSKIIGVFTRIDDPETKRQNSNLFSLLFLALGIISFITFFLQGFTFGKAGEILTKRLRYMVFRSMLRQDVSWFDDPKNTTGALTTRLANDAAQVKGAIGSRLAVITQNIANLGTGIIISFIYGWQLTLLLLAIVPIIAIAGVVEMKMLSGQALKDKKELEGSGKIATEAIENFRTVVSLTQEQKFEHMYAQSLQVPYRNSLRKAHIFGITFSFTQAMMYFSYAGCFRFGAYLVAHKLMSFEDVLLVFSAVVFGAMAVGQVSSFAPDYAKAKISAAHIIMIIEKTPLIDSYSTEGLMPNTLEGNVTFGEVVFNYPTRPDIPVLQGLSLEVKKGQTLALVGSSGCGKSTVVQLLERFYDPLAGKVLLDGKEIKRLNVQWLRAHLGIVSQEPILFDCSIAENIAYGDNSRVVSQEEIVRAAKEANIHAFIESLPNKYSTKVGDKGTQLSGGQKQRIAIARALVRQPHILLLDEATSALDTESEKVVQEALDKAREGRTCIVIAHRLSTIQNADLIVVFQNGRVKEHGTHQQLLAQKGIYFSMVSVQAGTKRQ

## CCN(CC)CCOc1ccc(Cc2ccccc2)cc1 [DPPE, N,N-diethyl-2-[4-(phenylmethyl)-phenoxy]ethanamine]
[1]
  inhibition of the p-glycoprotein (P-gp) pump: inhibits
[2]
  potentiation of cytotoxicity of a variety of antineoplastic drugs: potentiates the cytotoxicity
[3]
  potentiation of cytotoxicity of a variety of antineoplastic drugs: potentiates the cytotoxicity
[4]
  substrate for CYP 3A4: potent substrate
